Laboratory results as given in patent publication US9314536B2, “Compounds and methods for the treatment of EGFR positive diseases” (Bio-Thera Solutions, Ltd., Co., priority 2012, dated 2016).

Key:
tubulin = experiment: HTS-Tubulin Polymerization Assay Kit, tubulin polymerization in vitro; type: biochemical; details: 1 μM stock, 10 μL added to 100 μL 4 mg/ml tubulin, 37° C., 405 nm; compared with the PBS buffer
Description: The effect of 3AA-MDC, 206-3AA-MDC (206 is an anit-EGFR antibody containing a light chain with sequence shown in Seq ID 1 and a heavy chain with amino acid sequence shown in Seq ID 2, and it was prepared as described in example 7) and the metabolites (Cys-3AA-MDC and Lys-mcc-MDC) of prodrug antibody maytansinoid conjugates on the tubulin polymerization in vitro was assessed by HTS-Tubulin Polymerization Assay Kit (BK004P, Cytoskeleton, Inc., USA). According to the instruction of kit, pre-warm the 96-well plate to 37° C. for 30 min prior to starting the assay. At the same time, the spectrophotometer (SpectraMax, Molecular Devices, USA) was set as follow: wavelength, 405 nm; temperature, 37° C.; Kinetic, 31 cycles of 1 reading per minute. Make cold G-PEM buffer (990 μL General Tubulin Buffer+10 μL GTP Stock) and keep it on ice. Prepare 4 mg/mL tubulin, 1 μM L-3AA-MDC (N2′-deacetyl-N2′-(6-maleimido-1-oxo-hexyl)maytansine), 1 μM 206-3AA-MDC, 1 μM cys-3AA-MDC, 1 μM lys-mcc-MDC, 100 μM Paclitaxel, and 100 μM Nocodazole. Add 10 μL G-PEM, 3AA-MDC, 206-3AA-MDC, cys-3AA-MDC, lys-mcc-MDC, Paclitaxel, Nocodazole into the wells, and then add 100 μL 4 mg/ml tubulin to each well. Immediately place the plate into the spectrophotometer and start recording using the kinetic setup described above. […] Nocodazole, the tubulin polymerization inhibitor, was set as a negative control. […]

[1] = test system: human acute lymphoblastic leukemia line C.E.M.; details: cited from earlier work
[2] = versus methotrexate, daunorubicin, and vincristine; cited from earlier work

SMILES	inhibition of tubulin polymerization (tubulin)	inhibitory concentration (as low as) [1]	fold more cytotoxic than conventional chemotherapeutic agents [2]
COc1cc2cc(c1Cl)N(C)C(=O)C[C@H](OC(=O)[C@H](C)N(C)C(=O)CCCCCN1C(=O)C=CC1=O)[C@]1(C)OC1[C@H](C)[C@@H]1C[C@@](O)(NC(=O)O1)[C@H](OC)/C=C/C=C(\C)C2 (stereo partly shown) [3AA-MDC, N2′-deacetyl-N2′-(6-maleimido-1-oxo-hexyl)-maytansine]	more significantly inhibited the tubulin polymerization		
COc1cc2cc(c1Cl)N(C)C(=O)C[C@H](OC(=O)[C@H](C)N(C)C(C)=O)[C@]1(C)O[C@H]1[C@H](C)[C@@H]1C[C@@](O)(NC(=O)O1)[C@H](OC)/C=C/C=C(\C)C2 [Maytansine]		10^−7 mg/mL	100- to 1000 fold
COc1cc2cc(c1Cl)N(C)C(=O)C[C@H](OC(=O)[C@H](C)N(C)C(=O)CCSC1CC(=O)N(CC3CCC(C(=O)NCCCC[C@H](N)C(=O)O)CC3)C1=O)[C@]1(C)O[C@H]1[C@H](C)[C@@H]1C[C@@](O)(NC(=O)O1)[C@H](OC)/C=C/C=C(\C)C2 (stereo partly shown) [Lys-mcc-MDC]	more significantly inhibited the tubulin polymerization		
